Measurements taken from patent publication US11779602B2, “Methods of use for CAR T cells” (ENDOCYTE, INC., priority 2018, dated 2023).

How the values were obtained:
MDA-MB-231 tumors [1] = assay: EC17/E2-CAR T-cell therapy in NSG mice with and without MDA-MB-231 tumors; assay type: in vivo
Experimental: MDA-MB-231 tumor cells were grown in folate-deficient RPMI 1640 with 5-10% FBS at 37° C. in a 5% CO2 humidified atmosphere. MDA-MB-231 tumor cells were inoculated subcutaneously at 2.5×10^6 cells per animal. Only […] mice were inoculated and the remaining 22 mice were kept tumor-free.
EGFRt-sorted anti-FITC E2 scFv-CAR T cells were frozen in a T-cell freezing medium. Vials of frozen CAR-T cells were immediately stored at −80° C. The CAR-T cells were quickly thawed at 37° C., washed twice with PBS, and used for animal injection at 10 million viable EGFRt+ E2 CAR-T cells (CD4/CD8 at ˜1:1) per animal. A small aliquot was taken on the day infusion for flow cytometric analysis of E2-CAR T-cell phenotypes.
Mouse blood samples were processed for plasma and stored at −20° C. until use. A human TH1 cytokine panel (Biolegend, Cat. No. 740009) and a human hematopoietic stem cell cytokine panel (Biolegend, Cat. No. 740610) was used to detect human cytokines in the mouse blood. A mouse 13-plex inflammatory cytokine panel (Biolengend, No. 740150) was used to detect mouse cytokines. All analyses were performed per the manufacturer's instructions.
Whole blood cell analysis: Plasma was removed from predetermined volumes of whole EDTA treated blood and RBCs were lysed with RBC lysis solution. […] Determination of the concentration of CAR T cells in each blood sample was calculated according to Invitrogen's instructions. CAR T cells were identified as human CD3ε+ EGFRt+ events and easily distinguished and counted using the Kaluza™ flow cytometry software. The number of CAR T cells in the circulation of each infused mouse was then represented on the graphs as the total number of CAR T cells per 100 μL of whole blood analyzed. Statistical significance was determined by utilizing an unpaired, two-tailed, students t-test with significance set at p<0.05. […]

MDA-MB-231 tumors [2] = assay: CAR-T/EC17 therapy, fixed dose and dose de-escalation, in mice bearing MDA-MB-231 tumors; assay type: in vivo; conditions: 4M5.3-CAR-T 30 million cells, EC17 de-escalation
Source text: The effect of EC17 dose de-escalation was investigated on the anti-tumor activity and the toxicity (body weight changes) of CAR-T therapy. Two different anti-fluorescein scFv were used for the CAR constructions (FIG. 1). The first construct of CAR contains the following domains: antiFL(FITC-E2)scFv-IgG4 hinge (CH2 (L235D, N297Q)-CH3)-CD28 TM-4-1BB-CD3z-T2A-EGFRt. The second construct of CAR contains the following domains: antiFL(FITC-4M5.3)scFv-IgG4 hinge (CH2 (L235D, N297Q)-CH3)-CD28 TM-4-1BB-CD3z-T2A-EGFRt. The nucleic acid sequence and amino acid sequence of the CAR of each construct are shown as SEQ ID NOS:1 to 4. Human T cells were isolated, activated and transduced with a lentiviral vector carrying the appropriate CAR gene. CD4+ T cells with the CAR-modification and CD8+ T cells with the CAR-modification were isolated and cultured separately in vitro for about 7 days. CD4+ CAR-T cells and CD8+ CAR-T cells were mixed at a 1:1 ratio before i.v. administration for animal studies.
The second construct 4M5.3-CAR (antiFL(FITC-4M5.3) scFv-IgG4 hinge (CH2 (L235D, N297Q)-CH3)-CD28 TM-4-1BB-CD3z-T2A-EGFRt) was also evaluated. Mice bearing MDA-MB-231 tumors (150-250 mm^3) were used for in vivo studies to evaluate 4M5.3-CAR-T cells. […]

Structure (SMILES): NC1=NC2N=CC(CNc3ccc(C(=O)N[C@@H](CCC(=O)NCCNC(=S)Nc4ccc(-c5c6ccc(=O)cc-6oc6cc(O)ccc56)c(C(=O)O)c4)C(=O)O)cc3)=NC2C(=O)N1 (some centres unmarked) [EC17, FA-(γ)-ethylenediamine-FITC]
- IFN-γ production, tumor-bearing vs tumor-free mice (MDA-MB-231 tumors [1]; 10 million E2 CAR-T cells, EC17 500 nmol/kg days 2 and 10, plasma 20 hours after second dose): 23 fold
- increase in circulating E2 CAR T cells per 100 uL whole blood vs cohorts without EC17 (MDA-MB-231 tumors [1]; cohorts which received EC17 stimulation): more than 10 fold
- CAR-T cell expansion by FACS in tumor-free mice (MDA-MB-231 tumors [1]; post EC17 SIW500×2 doses): no detectable CAR-T cell expansion
- cytokine production (IL2, IFN-γ, IL-10) in tumor-bearing mice (MDA-MB-231 tumors [1]; with vs without EC17 dose): EC17-dependent
- EC17 dose dependence of anti-tumor activity and body weight loss (MDA-MB-231 tumors [2]): dose dependent anti-tumor activity and body weight loss
